Laboratory results from patent publication US20060069132A1, “Azolecarboxamide herbicides” (priority 2004, published 2006).

Legend:
large crabgrass [1] = assay: Test A pre-/postemergence herbicide test; format: in vivo, Digitaria sanguinalis
In short: (§1)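 Greenhouse injury scoring (0–100, complete control = 100) at approximately ten days follows simultaneous pre- and postemergence application. Soil received a directed spray after seeding; seedlings of 2–10 cm at the one- to two-leaf stage were sprayed to runoff.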

giant foxtail [2] = assay: Test A pre-/postemergence herbicide test; format: in vivo, Setaria faberi
In short: as §1

wheat = assay: Test B postemergence herbicide test; format: in vivo, Triticum aestivum; set-up: key to Wheat plant response rating: 0 = no effect, 100 = complete control; details: scale 0 (no effect) to 100 (complete control)
In short: (§2)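 Scale 0–100: zero equals no visible effect, 100 complete control, judged by eye relative to controls. Timing: 13 to 15 days in greenhouse post-treatment. Growth stage at spraying: two leaves (paddy) or one to four leaves, 2–18 cm (postemergence).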

morningglory [3] = assay: Test B pre-/postemergence herbicide test; format: in vivo, Ipomoea coccinea
In short: (§3)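 Formulation: non-phytotoxic solvent mix with surfactant. Timing: preemergence on seed and postemergence on 2–18 cm plants, applied concurrently. Readout after 13–15 d greenhouse: visual 0–100 control rating against controls.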

giant foxtail [4] = assay: Test B pre-/postemergence herbicide test; format: in vivo, Setaria faberi
In short: as §3

pigweed = assay: Test B pre-/postemergence herbicide test; format: in vivo, Amaranthus retroflexus
In short: as §3

velvetleaf [5] = assay: Test B pre-/postemergence herbicide test; format: in vivo, Abutilon theophrasti; details: scale 0 (no effect) to 100 (complete control)
In short: as §3

morningglory [6] = assay: Test A pre-/postemergence herbicide test; format: in vivo, Ipomoea spp.
In short: as §1

cocklebur = assay: Test B pre-/postemergence herbicide test; format: in vivo, Xanthium strumarium; details: scale 0 (no effect) to 100 (complete control)
In short: as §3

rice [7] = assay: Test B pre-/postemergence herbicide test; format: in vivo, Oryza sativa; details: preemergence
In short: as §3

Surinam grass = assay: Test B pre-/postemergence herbicide test; format: in vivo, Urochloa decumbens; details: scale 0 (no effect) to 100 (complete control)
In short: as §3

wild oat = assay: Test B postemergence herbicide test; format: in vivo, Avena fatua; details: scale 0 (no effect) to 100 (complete control)
In short: as §2

velvetleaf [8] = assay: Test A pre-/postemergence herbicide test; format: in vivo, Abutilon theophrasti
In short: as §1

barnyardgrass [9] = assay: Test A pre-/postemergence herbicide test; format: in vivo, Echinochloa crus-galli
In short: as §1

large crabgrass [10] = assay: Test B pre-/postemergence herbicide test; format: in vivo, Digitaria sanguinalis; details: scale 0 (no effect) to 100 (complete control)
In short: as §3

ducksalad = assay: Test B flooded paddy test; format: in vivo, Heteranthera limosa; details: 1000 g ai/ha, visual rating, scale 0 to 100 (0 no effect, 100 complete control), 13 to 15 days
In short: as §2

[11] = system: small flower umbrella sedge; assay: Test B flooded paddy test; format: in vivo, Cyperus difformis; details: 1000 g ai/ha, visual rating, scale 0 to 100 (0 no effect, 100 complete control), 13 to 15 days
In short: as §2

lambsquarters = assay: Test B pre-/postemergence herbicide test; format: in vivo, Chenopodium album
In short: as §3

corn = assay: Test B pre-/postemergence herbicide test; format: in vivo, Zea mays
In short: as §3

blackgrass = assay: Test B postemergence herbicide test; format: in vivo, Alopecurus myosuroides; details: scale 0 (no effect) to 100 (complete control)
In short: as §2

redroot pigweed = assay: Test A pre-/postemergence herbicide test; format: in vivo, Amaranthus retroflexus
In short: as §1

barnyardgrass [12] = assay: Test B pre-/postemergence herbicide test; format: in vivo, Echinochloa crus-galli
In short: as §3

rice [13] = assay: Test B flooded paddy test; format: in vivo, Oryza sativa; details: 1000 g ai/ha, visual rating, scale 0 to 100 (0 no effect, 100 complete control), 13 to 15 days
In short: as §2

barnyardgrass [14] = assay: Test B flooded paddy test; format: in vivo, Echinochloa crus-galli; details: 1000 g ai/ha, visual rating, scale 0 to 100 (0 no effect, 100 complete control), 13 to 15 days
In short: as §2

[15] = Postemergence, 500 g ai/ha, 0 to 100 scale, 0 no effect, 100 complete control
[16] = Postemergence, 2000 g ai/ha, 0 to 100 scale, 0 no effect, 100 complete control
[17] = Preemergence, 500 g ai/ha, visual rating, 0 to 100 scale (0 no effect, 100 complete control)
[18] = Preemergence, 2000 g ai/ha, 0 to 100 scale, 0 no effect, 100 complete control
[19] = Postemergence, 500 g ai/ha, visual rating after 13 to 15 days
[20] = postemergence, 125 g ai/ha, visual rating
[21] = 500 g ai/ha, visual rating 0-100, 0 no effect, 100 complete control, preemergence
[22] = Postemergence, 500 g ai/ha, visual rating after 13 to 15 days, scale 0 (no effect) to 100 (complete control)
[23] = postemergence, 125 g ai/ha, visual rating, scale 0 (no effect) to 100 (complete control)
[24] = preemergence, 125 g ai/ha, 0 to 100 scale, 0 is no effect, 100 is complete control

CCn1nc(C(C)(C)C)cc1C(=O)Nc1cccc(C(=O)OCCF)c1C [Compound 91]
Crabgrass, Large plant response rating (large crabgrass [1]; [15]): 10 | Plant response rating, Crabgrass, Large (large crabgrass [1]; [16]): 20 | Crabgrass, Large plant response rating (large crabgrass [1]; [17]): 0 | Crabgrass, Large plant response rating (large crabgrass [1]; [18]): 35 | Foxtail, Giant plant response rating (giant foxtail [2]; [15]): 0 | Plant response rating, Foxtail, Giant (giant foxtail [2]; [16]): 0 | Foxtail, Giant plant response rating (giant foxtail [2]; [17]): 0 | Foxtail, Giant plant response rating (giant foxtail [2]; [18]): 30 | Plant response rating, Wheat (wheat; [19]): 10 | Wheat plant response rating (wheat; [20]): 0 | Plant response rating, Morningglory (morningglory [3]; [21]): 10 | Plant response rating, Morningglory (morningglory [3]; [22]): 0 | Morningglory plant response rating (morningglory [3]; [23]): 0 | Plant response rating, Morningglory (morningglory [3]; [24]): 0 | Plant response rating, Foxtail, Giant (giant foxtail [4]; [21]): 10 | Plant response rating, Foxtail, Giant (giant foxtail [4]; [22]): 0 | Foxtail, Giant plant response rating (giant foxtail [4]; [23]): 0 | Plant response rating, Foxtail, Giant (giant foxtail [4]; [24]): 10 | Plant response rating, Pigweed (pigweed; [21]): 0 | Plant response rating, Pigweed (pigweed; [22]): 10 | Pigweed plant response rating (pigweed; [23]): 10 | Plant response rating, Pigweed (pigweed; [24]): 0 | Plant response rating, Velvetleaf (velvetleaf [5]; [19]): 10 | Velvetleaf plant response rating (velvetleaf [5]; [20]): 0 | Morningglory plant response rating (morningglory [6]; [15]): 0 | Plant response rating, Morningglory (morningglory [6]; [16]): 0 | Morningglory plant response rating (morningglory [6]; [17]): 0 | Morningglory plant response rating (morningglory [6]; [18]): 10 | Plant response rating, Cocklebur (cocklebur; [19]): 10 | Cocklebur plant response rating (cocklebur; [20]): 0 | Plant response rating, Rice (rice [7]; 500 g ai/ha, visual rating 0-100, 0 no effect, 100 complete control): 10 | Plant response rating, Rice (rice [7]; 125 g ai/ha, 0 to 100 scale, 0 is no effect, 100 is complete control): 0 | Plant response rating, Surinam Grass (Surinam grass; [19]): 10 | Surinam Grass plant response rating (Surinam grass; [20]): 10 | Plant response rating, Oat, Wild (wild oat; [19]): 10 | Oat, Wild plant response rating (wild oat; [20]): 0 | Velvetleaf plant response rating (velvetleaf [8]; [15]): 5 | Plant response rating, Velvetleaf (velvetleaf [8]; [16]): 10 | Velvetleaf plant response rating (velvetleaf [8]; [17]): 5 | Velvetleaf plant response rating (velvetleaf [8]; Preemergence, 2000 g ai/ha, visual rating, 0 to 100 scale (0 no effect, 100 complete control)): 20 | Barnyardgrass plant response rating (barnyardgrass [9]; [15]): 0 | Plant response rating, Barnyardgrass (barnyardgrass [9]; [16]): 0 | Barnyardgrass plant response rating (barnyardgrass [9]; [17]): 0 | Barnyardgrass plant response rating (barnyardgrass [9]; [18]): 15 | Plant response rating, Crabgrass, Large (large crabgrass [10]; [19]): 10 | Crabgrass, Large plant response rating (large crabgrass [10]; [20]): 0 | Ducksalad plant response rating (ducksalad): 30 | Sedge, Umbrella plant response rating [11]: 60 | Plant response rating, Lambsquarters (lambsquarters; [21]): 30 | Plant response rating, Lambsquarters (lambsquarters; [22]): 30 | Lambsquarters plant response rating (lambsquarters; [23]): 20 | Plant response rating, Lambsquarters (lambsquarters; [24]): 0 | Plant response rating, Corn (corn; [21]): 10 | Plant response rating, Corn (corn; [22]): 10 | Corn plant response rating (corn; [23]): 10 | Plant response rating, Corn (corn; [24]): 0 | Plant response rating, Blackgrass (blackgrass; [19]): 0 | Blackgrass plant response rating (blackgrass; [20]): 0 | Pigweed plant response rating (redroot pigweed; [15]): 0 | Plant response rating, Pigweed (redroot pigweed; [16]): 20 | Pigweed plant response rating (redroot pigweed; [17]): 0 | Pigweed plant response rating (redroot pigweed; [18]): 55 | Plant response rating, Barnyardgrass (barnyardgrass [12]; [21]): 10 | Plant response rating, Barnyardgrass (barnyardgrass [12]; [22]): 0 | Barnyardgrass plant response rating (barnyardgrass [12]; [23]): 0 | Plant response rating, Barnyardgrass (barnyardgrass [12]; [24]): 0 | Rice plant response rating (rice [13]): 10 | Barnyardgrass plant response rating (barnyardgrass [14]): 0
